Experimental data taken from ChEMBL document CHEMBL1909294, “Translating clinical findings into knowledge in drug safety evaluation--drug induced liver injury prediction system (DILIps)” (PLoS Comput Biol, 2011).

What was measured:
[1] = tested on: Hepatotoxicity;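 as to HepSE cholecystitis: Cholecystitis-related hepatic side effect score drawn from the DILIps (drug-induced liver injury prediction) training data set; call rule not given here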;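 as to HepSE elevated liver function tests: hepatic side effect score for raised liver function tests, as recorded in the DILIps training set used for predicting drug-induced liver injury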; as to HepSE hepatic failure: call rule not given here;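 as to HepSE hepatic necrosis: score of hepatic side effects for hepatic necrosis, drawn from the training data of DILIps, a prediction system for drug-induced liver injury; call rule not given here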;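 as to HepSE jaundice: Jaundice-related hepatic side-effect score drawn from the training data of the DILIps (drug-induced liver injury prediction system); call rule not given here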;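 as to HepSE liver function tests abnormal: hepatic side effect score taken from the DILIps (drug-induced liver injury prediction system) training data, here covering abnormal liver function test findings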
[2] = tested on: Hepatotoxicity; remark: listed apart in the source;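 as to HepSE cholecystitis: Cholecystitis-related hepatic side effect score drawn from the DILIps (drug-induced liver injury prediction) training data set; call rule not given here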;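 as to HepSE elevated liver function tests: hepatic side effect score for raised liver function tests, as recorded in the DILIps training set used for predicting drug-induced liver injury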; as to HepSE hepatic failure: call rule not given here;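 as to HepSE hepatic necrosis: score of hepatic side effects for hepatic necrosis, drawn from the training data of DILIps, a prediction system for drug-induced liver injury; call rule not given here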;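 as to HepSE jaundice: Jaundice-related hepatic side-effect score drawn from the training data of the DILIps (drug-induced liver injury prediction system); call rule not given here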;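 as to HepSE liver function tests abnormal: hepatic side effect score taken from the DILIps (drug-induced liver injury prediction system) training data, here covering abnormal liver function test findings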
[3] = tested on: Hepatotoxicity; remark: listed apart in the source;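 as to HepSE cholecystitis: Cholecystitis-related hepatic side effect score drawn from the DILIps (drug-induced liver injury prediction) training data set; call rule not given here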;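 as to HepSE elevated liver function tests: hepatic side effect score for raised liver function tests, as recorded in the DILIps training set used for predicting drug-induced liver injury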; as to HepSE hepatic failure: call rule not given here;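 as to HepSE hepatic necrosis: score of hepatic side effects for hepatic necrosis, drawn from the training data of DILIps, a prediction system for drug-induced liver injury; call rule not given here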;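 as to HepSE jaundice: Jaundice-related hepatic side-effect score drawn from the training data of the DILIps (drug-induced liver injury prediction system); call rule not given here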;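 as to HepSE liver function tests abnormal: hepatic side effect score taken from the DILIps (drug-induced liver injury prediction system) training data, here covering abnormal liver function test findings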
[4] = tested on: Hepatotoxicity; remark: listed apart in the source;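 as to HepSE cholecystitis: Cholecystitis-related hepatic side effect score drawn from the DILIps (drug-induced liver injury prediction) training data set; call rule not given here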;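 as to HepSE elevated liver function tests: hepatic side effect score for raised liver function tests, as recorded in the DILIps training set used for predicting drug-induced liver injury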; as to HepSE hepatic failure: call rule not given here;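 as to HepSE hepatic necrosis: score of hepatic side effects for hepatic necrosis, drawn from the training data of DILIps, a prediction system for drug-induced liver injury; call rule not given here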;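 as to HepSE jaundice: Jaundice-related hepatic side-effect score drawn from the training data of the DILIps (drug-induced liver injury prediction system); call rule not given here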;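 as to HepSE liver function tests abnormal: hepatic side effect score taken from the DILIps (drug-induced liver injury prediction system) training data, here covering abnormal liver function test findings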
[5] = tested on: Hepatotoxicity; remark: listed apart in the source; as to HepSE hepatic failure: call rule not given here
[6] = tested on: Hepatotoxicity; remark: listed apart in the source; as to HepSE hepatic failure: call rule not given here
[7] = tested on: Hepatotoxicity; remark: listed apart in the source
[8] = tested on: Hepatotoxicity; remark: listed apart in the source
[9] = tested on: Hepatotoxicity; remark: listed apart in the source
[10] = tested on: Hepatotoxicity; remark: listed apart in the source
[11] = tested on: Hepatotoxicity; remark: listed apart in the source
[12] = tested on: Hepatotoxicity; remark: listed apart in the source
[13] = tested on: Hepatotoxicity; remark: listed apart in the source
[14] = tested on: Hepatotoxicity; remark: listed apart in the source

| Compound | HepSE_elevated liver function tests [1] | HepSE_hepatic failure [2] | HepSE_hepatic necrosis [3] | HepSE_cholecystitis [4] | HepSE_hepatitis [5] | HepSE_liver function tests abnormal [6] | HepSE_jaundice [7] | HepSE_liver fatty [8] | HepSE_cirrhosis [9] | HepSE_hepatomegaly [10] | HepSE_cholelithiasis [11] | HepSE_liver disease [12] | HepSE_bilirubinemia [13] | HepSE_Combined Scores [14] |
| --- | --- | --- | --- | --- | --- | --- | --- | --- | --- | --- | --- | --- | --- | --- |
| COC(=O)N[C@H](C(=O)N[C@@H](Cc1ccccc1)[C@@H](O)CN(Cc1ccc(-c2ccccn2)cc1)NC(=O)[C@@H](NC(=O)OC)C(C)(C)C)C(C)(C)C [ATAZANAVIR] | 0 | 0 | 0 | 1 | 1 | 0 | 1 | 1 | 0 | 1 | 1 | 0 | 1 | 7 |
| CN1CCN(C(=O)OC2c3nccnc3C(=O)N2c2ccc(Cl)cn2)CC1 (configuration not stated) [ZOPICLONE] | 0 | 0 | 0 | 0 | 1 | 0 | 0 | 0 | 0 | 1 | 1 | 0 | 0 | 3 |
| CC(=O)Oc1c(C)cc(OCC(O)CNC(C)C)c(C)c1C (configuration not stated) [METIPRANOLOL] | 0 | 0 | 0 | 0 | 0 | 0 | 0 | 0 | 0 | 0 | 0 | 0 | 0 | 0 |
| GADOTERIDOL | 0 | 0 | 0 | 0 | 0 | 0 | 0 | 0 | 0 | 0 | 0 | 0 | 0 | 0 |
| CN(C)CCC=C1c2ccccc2COc2ccccc21 [DOXEPIN] | 0 | 0 | 0 | 0 | 0 | 0 | 1 | 0 | 0 | 0 | 0 | 0 | 0 | 1 |
| CCC1(c2ccccc2)C(=O)NCNC1=O [PRIMIDONE] | 0 | 0 | 0 | 0 | 0 | 0 | 0 | 0 | 0 | 0 | 0 | 0 | 0 | 0 |
| Cl.N [AMMONIUM CHLORIDE] | 0 | 0 | 0 | 0 | 0 | 0 | 0 | 0 | 0 | 0 | 0 | 0 | 0 | 0 |
| CC(=O)O[C@@]12CO[C@@H]1C[C@H](O)[C@@]1(C)C(=O)[C@H](O)C3=C(C)[C@@H](OC(=O)[C@H](O)[C@@H](NC(=O)OC(C)(C)C)c4ccccc4)C[C@@](O)([C@@H](OC(=O)c4ccccc4)[C@H]21)C3(C)C.O.O.O [DOCETAXEL] | 1 | 1 | 0 | 0 | 1 | 1 | 1 | 0 | 0 | 0 | 0 | 0 | 1 | 6 |
| CC1(C)S[C@@H]2[C@H](NC(=O)COc3ccccc3)C(=O)N2[C@H]1C(=O)O [PENICILLIN V] | 0 | 0 | 0 | 0 | 0 | 0 | 0 | 0 | 0 | 0 | 0 | 0 | 0 | 0 |
| O=P1(NCCCl)OCCCN1CCCl (configuration not stated) [IFOSFAMIDE] | 0 | 0 | 0 | 0 | 0 | 0 | 0 | 0 | 0 | 0 | 0 | 0 | 0 | 0 |
| CCOC(=O)C1=C(COCCN)NC(C)=C(C(=O)OC)C1c1ccccc1Cl (configuration not stated) [AMLODIPINE] | 0 | 0 | 0 | 0 | 1 | 0 | 1 | 0 | 0 | 0 | 0 | 0 | 0 | 2 |
| CCOC(=O)c1cncn1[C@H](C)c1ccccc1 [ETOMIDATE] | 0 | 0 | 0 | 0 | 0 | 0 | 0 | 0 | 0 | 0 | 0 | 0 | 0 | 0 |
| CN(C)CCC(c1ccc(Cl)cc1)c1ccccn1 (configuration not stated) [CHLORPHENIRAMINE] | 0 | 0 | 0 | 0 | 0 | 0 | 0 | 0 | 0 | 0 | 0 | 0 | 0 | 0 |
| COc1cc(NCc2ccc3nc(N)nc(N)c3c2C)cc(OC)c1OC [TRIMETREXATE] | 0 | 0 | 0 | 0 | 0 | 0 | 0 | 0 | 0 | 0 | 0 | 0 | 0 | 0 |
| CCS(=O)(=O)CCn1c([N+](=O)[O-])cnc1C [TINIDAZOLE] | 0 | 0 | 0 | 0 | 0 | 0 | 0 | 0 | 0 | 0 | 0 | 0 | 0 | 0 |
| CC(C)CC(N(C)C)C1(c2ccc(Cl)cc2)CCC1 (configuration not stated) [SIBUTRAMINE] | 0 | 0 | 0 | 1 | 0 | 1 | 0 | 0 | 0 | 0 | 1 | 0 | 0 | 3 |
| CN(C)C(=O)Oc1ccc[n+](C)c1 [PYRIDOSTIGMINE] | 0 | 0 | 0 | 0 | 0 | 0 | 0 | 0 | 0 | 0 | 0 | 0 | 0 | 0 |
| Nc1nc(F)nc2c1ncn2[C@@H]1O[C@H](CO)[C@@H](O)[C@@H]1O [FLUDARABINE] | 0 | 1 | 0 | 0 | 0 | 0 | 0 | 0 | 0 | 0 | 1 | 0 | 0 | 2 |
